Results published in article PMC8705818, “Experimental Characterization of the Interaction between the N-Terminal SH3 Domain of Crkl and C3G” (International Journal of Molecular Sciences, 2021).
Peptide text beside a SMILES is read from it. * marks the point of attachment. Dansyl = CN(C)c1cccc2c(S(=O)(=O)*)cccc12

Biological target: T1, N-SH3 domain of Crkl (WT) (Homo sapiens, UniProt P46109)
T1 construct: The construct encoding the N-SH3 domain of Crkl was subcloned in a pET28b+ plasmid vector; His-tag; made in house; host or cells: E. coli BL21
Experiment: Stopped-flow kinetic binding, N-SH3 WT versus C3G277–296
Settings: 10 °C
Excerpt: In order to characterize the binding reaction between the N-SH3 domain of Crkl and C3G, we conducted kinetic binding experiments with a stopped-flow apparatus, by rapidly mixing the N-SH3 domain versus the C3G277–296 peptide, the latter covalently linked with a dansyl group at its N-terminus (Dansyl-[…]). This modification allowed us to monitor the binding reaction by following the change of Förster resonance energy transfer (FRET) signal upon binding, which generates from the two naturally present tryptophan residues in the N-SH3 domain in position 164 and 165 (donor) and the dansyl group linked to the peptide (acceptor).
To characterize the binding between N-SH3 and the C3G277–296 peptide, we resorted to carry out pre-steady state rapid mixing stopped-flow experiments. In these types of experiments, a common practice lies in performing the kinetic analysis under the so-called pseudo-first-order conditions, i.e., a condition in which one of the two reactants is held at a much higher concentration than the other. In practice, in many cases, it is extremely difficult to achieve such conditions. This is particularly true in cases in which the observed rate constants are so high to approach the experimental limitations of the stopped-flow apparatus. Accordingly, as described below, the analysis of the binding data must be performed by applying the analytical solution of the bimolecular binding transition.
We rapidly mixed a constant concentration of C3G277–296 peptide (0.5 µM) versus increasing concentrations of N-SH3 (ranging from 0.5 to 5 µM) and the observed rate constants (kobs) obtained at different ionic strength conditions (buffer Hepes 50 mM, pH 7.0, 0.15 M, 0.3 M, 0.5 M and 1 M NaCl) were plotted as function of concentration of N-SH3 and fitted with a linear equation (Figure 1). By following previously derived equations [19, 20], the dependence of kobs as function of [N-SH3] was fitted with Equation (1), taking into account the non-pseudo-first order conditions, allowing us to calculate the microscopic association rate constant (kon), the microscopic dissociation rate constant (koff) of the binding reaction and the equilibrium dissociation rate constant KD, such as koff/kon. To increase the reliability of the calculated KD, we resorted to directly obtaining a koff value through displacement experiments (Table 1), in which a preincubated complex of N-SH3 domain and dansylated C3G277–296 peptide (at the concentration of 0.5 and 2 µM, respectively) were rapidly mixed versus a high excess of nondansylated peptide (ranging from 20 to 40 µM). In agreement with the theory in [21], the observed rate constants were insensitive to displacer concentration. In all binding and displacement experiments conducted, traces were satisfactorily fitted with a single-exponential equation. (1) kobs=(kon^2∗(2−[NSH3])^2+koff^2+2konkoff(2+[NSH3]))^1/2
To further investigate the role of charges in the binding reaction between N-SH3 domain and C3G, we resorted to performing kinetic binding experiment at different pH conditions, at a range of pH between 5.0 and 9.0. The observed rate constants obtained at different pH conditions were fitted with Equation (1) (Figure 2, left), and the calculated kinetic parameters kon and koff (obtained from separated displacement experiments) are reported in Table 1.
Kinetic binding experiments were performed on a single-mixing SX-18 stopped-flow instrument (Applied Photophysics), by mixing a constant concentration (0.5 μM) of C3G dansylated versus increasing concentrations of N-SH3 at 10 °C. Ionic strength dependence of wt N-SH3 was performed with concentrations ranging from 1 to 5 µM for 0 M NaCl condition and from 0.5 to 5 µM for 0.15 M, 0.3 M, 0.5 M and 1 M NaCl, buffer Hepes 50 mM pH 7.0. The excitation wavelength was 280 nm, and fluorescence was collected using a 455 nm cut-off filter. At least, five independent acquisitions were collected and averaged for each experiment. […]

T1 sequence (P46109 123-183 limits assumed): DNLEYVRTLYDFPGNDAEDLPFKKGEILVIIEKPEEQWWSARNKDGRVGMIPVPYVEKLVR

**Q.** Which results are given for CC(C)C[C@H](NC(=O)[C@H](C)NC(=O)[C@@H]1CCCN1C(=O)[C@@H]1CCCN1C(=O)[C@@H]1CCCN1C(=O)[C@H](CO)NC(=O)[C@H](CC(N)=O)NC(=O)[C@H](CC(=O)O)NC(=O)[C@@H](NC(=O)[C@@H](NS(=O)(=O)c1cccc2c(N(C)C)cccc12)C(C)C)C(C)C)C(=O)N1CCC[C@H]1C(=O)N1CCC[C@H]1C(=O)N[C@@H](CCCCN)C(=O)N[C@@H](CCCCN)C(=O)N[C@@H](CCCNC(=N)N)C(=O)N[C@@H](CCC(N)=O)C(=O)N[C@@H](CO)C(=O)N[C@@H](C)C(=O)N1CCC[C@H]1C(=O)N[C@@H](CO)C(=O)O [C3G277–296] (Dansyl-VVDNSPPPALPPKKRQSAPS-OH)?
**A.** kon (pH 5, pH 5.0 (50 mM Sodium Acetate), 0.5 M NaCl, 0.5 µM dansylated peptide vs 4.0–8.0 µM N-SH3): 4.4e+07 ± 1.5e+07 M⁻¹ s⁻¹; kon (pH 5.5, pH 5.5 (50 mM Sodium Acetate), 0.5 M NaCl, 0.5 µM dansylated peptide vs 2.0–7.0 µM N-SH3): 3.7e+07 ± 3e+06 M⁻¹ s⁻¹; kon (pH 6.5, pH 6.5 (Bis–Tris 50 mM), 0.5 M NaCl, 0.5 µM dansylated peptide vs 0.5–5.0 µM N-SH3): 6.5e+07 ± 4e+06 M⁻¹ s⁻¹; kon (pH 7, 0 M NaCl, Hepes 50 mM pH 7.0, 0.5 µM dansylated peptide vs 1–5 µM N-SH3, FRET, ex 280 nm, 455 nm cut-off, at least five acquisitions averaged): 1.3e+08 ± 7e+06 M⁻¹ s⁻¹; kon (pH 7, 0.15 M NaCl, Hepes 50 mM pH 7.0, 0.5 µM dansylated peptide vs 0.5–5 µM N-SH3, FRET): 9.6e+07 ± 8e+06 M⁻¹ s⁻¹; kon (pH 7, 0.3 M NaCl, Hepes 50 mM pH 7.0, 0.5 µM dansylated peptide vs 0.5–5 µM N-SH3, FRET): 8.3e+07 ± 7e+06 M⁻¹ s⁻¹; kon (pH 7, 0.5 M NaCl (ionic strength series), Hepes 50 mM pH 7.0, 0.5 µM dansylated peptide vs 0.5–5 µM N-SH3, FRET): 5.1e+07 ± 4e+06 M⁻¹ s⁻¹; kon (pH 7, 1.0 M NaCl, Hepes 50 mM pH 7.0, 0.5 µM dansylated peptide vs 0.5–5 µM N-SH3, FRET): 6.8e+07 ± 5e+06 M⁻¹ s⁻¹; kon (pH 7, pH 7.0 (Hepes 50 mM), 0.5 M NaCl (pH series), 0.5 µM dansylated peptide vs 1.5–6.0 µM N-SH3): 5.2e+07 ± 5e+06 M⁻¹ s⁻¹; kon (pH 7.5, pH 7.5 (Hepes 50 mM), 0.5 M NaCl, 0.5 µM dansylated peptide vs 0.5–5.0 µM N-SH3): 5.1e+07 ± 5e+06 M⁻¹ s⁻¹; kon (pH 8, pH 8.0 (Tris–HCl 50 mM), 0.5 M NaCl, 0.5 µM dansylated peptide vs 1.5–6.0 µM N-SH3): 5.6e+07 ± 5e+06 M⁻¹ s⁻¹; kon (pH 8.5, pH 8.5 (Tris–HCl 50 mM), 0.5 M NaCl, 0.5 µM dansylated peptide vs 1.5–6.0 µM N-SH3): 6.8e+07 ± 7e+06 M⁻¹ s⁻¹; kon (pH 9, pH 9.0 (Tris–HCl 50 mM), 0.5 M NaCl, 0.5 µM dansylated peptide vs 1.5–6.0 µM N-SH3): 3.9e+07 ± 4e+06 M⁻¹ s⁻¹
